Source: patent publication US10881667B2, “Method and composition for treating epilepsy” (City University of Hong Kong, priority 2018, dated 2021)
“Also recorded” adds a separate entry of the source.

Test system: epilepsy model mice (intrahippocampal kainic acid)
Assay: spontaneous recurrent seizures in kainic acid-induced epilepsy model mice, Racine scale accumulative scores
Format: in vivo, C57 mice
Details: YM022 100 nM, YF476 1 μM; for accumulative scores of spontaneous seizures / spontaneous seizures onset after drug intervention: adult male C57 mice, kainic acid model, i.p. injection, 10 μL (5 mice), 10 μL (9 mice), vs day before intervention; for seizure onsets after multiple injections: kainic acid model mice, multiple i.p. injections, 10 μL
Procedure: FIG. 1 is a series of line plots depicting the statistics of the accumulative scores of spontaneous seizures of epilepsy model mice before and after single or multiple drug interventions ([…], 1 μM, 10 μL). The 9 lines represent 9 epilepsy model mice of the experiment, and the black arrows indicate the time of drug interventions. Accumulative scores were recorded base on the quantity and severity of spontaneous seizures: 3=Racine scale stage-5 seizure; 2=Racine scale stage-4 seizure; 1=Racine scale stage-3 seizure; accumulative score is equal to sum of scores of seizures on daily basis.
FIG. 2 is a series of line plots depicting the statistics of the accumulative scores of spontaneous seizures of epilepsy model mice before and after single or multiple drug interventions (YM022, 100 nM, 10 μL). The 5 lines represent 5 epilepsy model mice of the experiment, and the black arrows indicate the time of drug interventions.
Adult male C57 mice were housed under standard conditions, with food and water available. For injection of kainic acid, mice were anesthetized with sodium pentobarbital (50 mg/kg, i.p.; Ceva Sante Animale Co., France), and atropine sulphate (0.05 mg/kg, s.c.) was administered to inhibit tracheal secretions. Kainic acid (0.3 mg/mL, 650 nL, Tocris), was stereotaxically injected into the right CA3 area of the hippocampus. Kainic acid was slowly injected over 60 s with a 2 μL microsyringe at the following stereotaxic coordinates: AP, −2.06; ML, −1.80; DV, −1.60, respectively. After injection, the needle of the syringe was maintained in situ for additional 5 min to limit reflux along the injection track. Directly after surgery, the mice were housed in clear plexiglass cages (one per cage). A special camera was placed diagonally above each cage for monitoring in both the light and dark phase. Exactly 2 weeks after kainic acid treatment, all videos were collected regularly, and three trained technicians blind to drug intervention viewed the videos. The seizure activities during 12-h epoch (00:00 a.m. to 12:00 p.m.) were rated with Racine scale (Electroencephalogr Clin Neurophysiol, 1972, 32(3): 281-294). Accumulative scores were recorded base on the quantity and severity of spontaneous seizures: 3=Racine scale stage-5 seizure; 2=Racine scale stage-4 seizure; 1=Racine scale stage-3 seizure; accumulative score is equal to sum of scores of seizures on daily basis.
The model of epilepsy induced in mice by kainic acid reproduces most of the clinical and neurophysiological features of human temporal lobe epilepsy. Unilateral intrahippocampal injection of kainic acid induced a limbic status epilepticus which may last for up to 5 hours. […]

Compound	accumulative scores of spontaneous seizures / spontaneous seizures onset after drug intervention	seizure onsets after multiple injections
CNc1cccc(NC(=O)N[C@@H]2N=C(c3ccccn3)c3ccccc3N(CC(=O)C(C)(C)C)C2=O)c1 [YF476]	significantly reduce; also recorded: significant reduction	very rare
Cc1cccc(NC(=O)N[C@@H]2N=C(c3ccccc3)c3ccccc3N(CC(=O)c3ccccc3C)C2=O)c1 [YM022]	significantly reduce; also recorded: significant reduction	very rare
